Laboratory results from publication PMC9530166, “Allosteric regulation of glycogen breakdown by the second messenger cyclic di-GMP” (Nature Communications, 2022).

Assays:
His6-Vnz25270 [1] = test: nanoDSF thermal shift assay, GlgX paralog Vnz25270; assay type: binding, Streptomyces venezuelae; conditions: 10 µM His6-Vnz25270, 1 mM c-di-GMP
Protocol: For label-free thermal shift assay experiments, 10 μM purified protein in 25 mM Tris pH 8, 150 mM NaCl, 2.5% (v/v) glycerol, and 5 mM MgCl2 was incubated without or with (1 mM) of nonlabeled c-di-GMP or c-di-AMP, respectively, at rt for 10 min. Reactions were subsequently analyzed in a Tycho NT.6 (NanoTemper Technologies) device with a 30 K/min thermal ramp and the internal fluorescence at 330 and 350 nm was recorded. Data analysis and calculation of derivatives was done using the internal evaluation features of the Tycho instrument.
(a) 15 µg of purified E. coli His6-GlgX
167 or His6-Vnz25270, respectively, were mixed with 0.5 µl of [32P]-c-di-GMP (Hartmann Analytic
168 GmbH, Braunschweig) in binding buffer (25 mM Tris pH 8.0, 150 mM NaCl, 2.5% (v/v) glycerol
169 and 5 mM MgCl2). 10 µL of the reactions were spotted on the same nitrocellulose membrane (Roth),
170 air dried for 10 min and analyzed by phosphorimaging. (b, c) 10 µM purified His6-Vnz25270 (b) or
171 His6-GlgXE.coli (c) in 25 mM Tris pH 8.0, 150 mM NaCl, 2.5% (v/v) glycerol and 5 mM MgCl2 were
172 incubated without or with (1 mM) c-di-GMP. Reactions were analyzed in a Tycho NT.6
173 (NanoTemper Technologies) device.
(1 picture or pasted object on this page, not shown here)

His6-GlgXD342A+E378A = test: BCA reducing-end enzyme assay, GlgXD342A+E378A; assay type: biochemical, Streptomyces venezuelae; conditions: 50 µM c-di-GMP, 0.05% glycogen from rabbit, 1 µM enzyme
Protocol: (§1) Fig. 2 c-di-GMP stimulates glycogen breakdown activity of GlgX in vitro. a Bicinchoninic acid (BCA) in vitro enzyme assay. The purple copper bicinchoninate complex indicating GlgX-mediated generation of reducing ends in glycogen was quantified by photometric measurements at 562 nm. A562 values were converted into reducing ends [µM glucose equivalents] based on D-glucose as a standard. Reactions contained 0.05% (w/v) glycogen from rabbit, 1 µM GlgX and increasing concentrations of c-di-GMP (0–100 µM). Source data are provided as a Source data file. b BCA assay containing 0.05% of either glycogen from rabbit, pullulan, amylopectin from maize or amylose from potato as substrates. Where appropriate, 1 µM GlgX or 50 µM c-di-GMP were added to the reaction samples. Source data are provided as a Source data file. c BCA assay as in a with or without c-di-GMP (50 µM), 0.05% glycogen from rabbit (S) and 1 µM Vnz25270, GlgX, the active site mutants GlgXD342A, GlgXE378A, GlgXD342A+E378A, or the c-di-GMP-binding mutant variant GlgXDETR49-52 as indicated. […]
(§2) Hydrolysis of carbohydrates was assessed in vitro by measuring the accumulation of reducing sugar ends using the BCA assay[42] and D-glucose as a standard for calibration (Supplementary Fig. 11). […] 125 μl sample aliquots were transferred in duplicates to a 96 well plate and the absorbance at 562 nm was measured using a plate reader.

His6-Vnz25270 [2] = test: BCA reducing-end enzyme assay, Vnz25270; assay type: biochemical, Streptomyces venezuelae; conditions: 50 µM c-di-GMP, 0.05% glycogen from rabbit, 1 µM enzyme
Protocol: as §1, §2

GlgX = GlgX (Streptomyces venezuelae, UniProt F2RAW5); test: Microscale thermophoresis (MST); assay type: binding; conditions: 40 nM RED-NHS labeled GlgX, unlabeled c-di-GMP, n=2
Protocol: For MST experiments, purified GlgX was labeled using Monolith NT protein labeling kit RED-NHS (amine reactive) dye (NanoTemper Technologies GmbH) according to manufacturer´s guidelines. The protein concentration was adjusted to 20 μM in labeling buffer and the labeling reaction was carried out at rt for 30 min in the dark. Excess fluorescence dye was subsequently removed from the labeled protein by gel filtration using a dye removal column provided by the supplier and equilibrated with MST buffer (25 mM Tris pH 8, 150 mM NaCl, 2.5% (v/v) glycerol, 5 mM MgCl2, 0.05% (v/v) Tween). A UV/VIS spectrophotometry at 650 and 280 nm was used to determine the degree of labeling. Next, labeled GlgX was adjusted to 80 nM in MST buffer and a series of 16 1:2 dilutions of c-di-GMP (BioLog) were prepared using the same buffer. An equal volume of protein and c-di-GMP dilutions were mixed resulting in 16 samples with 40 nM protein each and c-di-GMP concentrations ranging from 2 mM to […]. Samples were then loaded into Monolith NT.115 Premium Capillaries (NanoTemper Technologies) and MST was measured using a Monolith NT.115 instrument (NanoTemper Technologies). Instrument parameters were set to 20% LED power and 40% MST power and the data were analyzed using MO.Affinity Analysis software version 2.3; NanoTemper Technologies. […]

[RsiG + WhiG] = target: [RsiG + WhiG]; parameters: method as in PMID 25171413, PMID 31810759; conditions: cited from earlier work

Chain of GlgX (F2RAW5 entry or part of it): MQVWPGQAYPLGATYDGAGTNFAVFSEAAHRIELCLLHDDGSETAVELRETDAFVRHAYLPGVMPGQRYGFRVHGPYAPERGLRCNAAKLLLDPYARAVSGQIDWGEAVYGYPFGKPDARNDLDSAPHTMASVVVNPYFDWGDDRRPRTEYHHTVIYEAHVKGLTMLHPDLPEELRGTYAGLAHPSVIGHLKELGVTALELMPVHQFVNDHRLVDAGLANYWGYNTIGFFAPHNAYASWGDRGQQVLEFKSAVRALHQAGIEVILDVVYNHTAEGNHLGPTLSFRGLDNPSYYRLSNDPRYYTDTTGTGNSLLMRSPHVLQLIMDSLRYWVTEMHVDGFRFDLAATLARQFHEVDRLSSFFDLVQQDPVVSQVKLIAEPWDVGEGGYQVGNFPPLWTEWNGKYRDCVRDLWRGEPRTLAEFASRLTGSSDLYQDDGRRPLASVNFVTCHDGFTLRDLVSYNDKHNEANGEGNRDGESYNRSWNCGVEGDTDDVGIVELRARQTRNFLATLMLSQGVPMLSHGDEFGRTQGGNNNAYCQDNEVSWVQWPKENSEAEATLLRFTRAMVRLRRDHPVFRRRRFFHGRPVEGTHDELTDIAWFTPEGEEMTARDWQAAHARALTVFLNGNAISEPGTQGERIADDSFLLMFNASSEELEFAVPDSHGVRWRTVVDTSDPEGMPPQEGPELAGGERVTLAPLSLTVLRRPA

Compound: Nc1nc2c(ncn2[C@@H]2O[C@@H]3CO[P@](=O)(O)O[C@H]4[C@@H](O)[C@H](n5cnc6c(=O)[nH]c(N)nc65)O[C@@H]4CO[P@](=O)(O)O[C@H]3[C@H]2O)c(=O)[nH]1 [c-di-GMP, bis-(3′−5′)-cyclic diguanosine monophosphate]
- interaction with c-di-GMP by nanoDSF (His6-Vnz25270 [1]): did not detect any interactions
- stimulation of enzyme activity by c-di-GMP (His6-GlgXD342A+E378A): could not be stimulated
- effect of c-di-GMP on hydrolytic activity (His6-Vnz25270 [2]): remained at basal levels
- Kd (GlgX): 8.3 µM
- Kd ([RsiG + WhiG]): 0.39 ± 0.05 µM
